Measurements from the OligoGym collection.
“And” between values parts separate entries of the source, which are not always exact repeats. Equal values may be shown once. After the bases stand the sugars from the 5' end (letter, count) and the backbone: PS all phosphorothioate, else s phosphorothioate and o phosphodiester by linkage. Methylation of C is not given here. e = 2'-O-(2-methoxyethyl) (MOE); k = constrained ethyl (cEt); d = 2'-deoxy (DNA)

target: IRF4; conditions: ASO, H929, 0.04 µM

Sequence | target mRNA inhibition
GTGATAGCTGAGCTGA (sugars k3 d10 k3, PS) | 51% and 42%

same assay, conditions: ASO, KMS11, 0.2 µM

Sequence | target mRNA inhibition
GTGATAGCTGAGCTGA (sugars k3 d10 k3, PS) | 77% and 89%

same assay, conditions: ASO, MM.1R, 0.0625 µM

Sequence | target mRNA inhibition
AGTCAATCACTGGAGA (sugars k3 d10 k3, PS) | 1% and -8%
GTGATAGCTGAGCTGA (sugars k3 d10 k3, PS) | 13% and 17%
GAGTGAGATGCGGAGG (sugars k3 d10 k3, PS) | 6%

same assay, conditions: ASO, MM.1R, 0.074 µM

Sequence | target mRNA inhibition [%]
AGTCAATCACTGGAGA (sugars k3 d10 k3, PS) | 0
AGCATTTTATCATCCG (sugars k3 d9 k3 e1, PS) | 17

same assay, conditions: ASO, MM.1R, 0.222 µM

Sequence | target mRNA inhibition [%]
AGTCAATCACTGGAGA (sugars k3 d10 k3, PS) | -15
AGCATTTTATCATCCG (sugars k3 d9 k3 e1, PS) | 32

same assay, conditions: ASO, MM.1R, 0.25 µM

Sequence | target mRNA inhibition
AGTCAATCACTGGAGA (sugars k3 d10 k3, PS) | 4% and 5%
GTGATAGCTGAGCTGA (sugars k3 d10 k3, PS) | 38% and 47%
GAGTGAGATGCGGAGG (sugars k3 d10 k3, PS) | 0%

same assay, conditions: ASO, MM.1R, 0.666 µM

Sequence | target mRNA inhibition [%]
AGTCAATCACTGGAGA (sugars k3 d10 k3, PS) | -7
AGCATTTTATCATCCG (sugars k3 d9 k3 e1, PS) | 61

same assay, conditions: ASO, MM.1R, 1 µM

Sequence | target mRNA inhibition
AGTCAATCACTGGAGA (sugars k3 d10 k3, PS) | 16% and 22%
TTATGTTAGCCAATTC (sugars k3 d10 k3, PS) | 9% and 22%
GTTGGCTGGTCTTTGT (sugars kkdddddddddkekek, PS) | 62%
TACCGATGCTTCAAGA (sugars k3 d10 k3, PS) | -3%
GTGTCTAAAGTCCCAT (sugars kddddddddddkekek, PS) | 34% and 23%
GACACTTTTAGAGAGG (sugars kkddddddddddkeke, PS) | 9%
TTGATGTGATAGCTGA (sugars kkdddddddddkdkdk, PS) | 36%
GATTATATACTGGTTG (sugars kkddddddddddkeke, PS) | 45%
GTGATAGCTGAGCTGA (sugars k3 d10 k3, PS) | 70% and 75%
ATGGCAAAAGACCAAT (sugars k3 d10 k3, PS) | -5%
TTGTTTGCAAGCTATA (sugars k3 d10 k3, PS) | 36%
GGCGCGGACGCACGGA (sugars k3 d10 k3, PS) | 10%
AGTATGAGAAACGGCC (sugars k2 d9 e3 k2, PS) | 16%
GAACCACAAGCAGTGA (sugars k3 d10 k3, PS) | -32%
AATGTGTATTACTCTT (sugars kkdddddddddkekek, PS) | 52% and 41%
ACAGTGACTTGCATCC (sugars kddddddddddkekek, PS) | -5%

Sequence | target mRNA inhibition
CCGATGCTTCAAGACA (sugars k3 d10 k3, PS) | 13%
CATCCGAAAAGACTGG (sugars k3 d10 k3, PS) | 14%
ATTACTCTTAGGCACA (sugars k3 d10 k3, PS) | 30%
CACCAGCCATCGGCAG (sugars k3 d10 k3, PS) | -19%
TGGGATTATATACTGG (sugars kdddddddddkekeke, PS) | 40%
AAGTTCTAGTCGCGCA (sugars k3 d10 k3, PS) | 11%
TGTGCTTGCCAAGCCT (sugars k3 d10 k3, PS) | 38% and 49%
ATGCGGAGGTTCCTTG (sugars k3 d10 k3, PS) | 47% and 52%
AGCATTTTATCATCCG (sugars k3 d9 k3 e1, PS) | 66%
TGGAAACGAGAACGCA (sugars k3 d10 k3, PS) | -7%
CGGACACGCCCGACCC (sugars k3 d10 k3, PS) | 7%
ACAGAGACGCGGTGAG (sugars k3 d10 k3, PS) | 14%
ACCGCATTGCTAGATT (sugars k3 d10 k3, PS) | 27%
TCTGGATGAGCTTACA (sugars k3 d10 k3, PS) | 14%
TGTGATAGCTGAGCTG (sugars k3 d10 k3, PS) | 47%
GTTACCGCATTGCTAG (sugars k3 d10 k3, PS) | 16%

same assay, conditions: ASO, MM.1R, 2 µM

Sequence | target mRNA inhibition [%]
AGTCAATCACTGGAGA (sugars k3 d10 k3, PS) | 9
AGCATTTTATCATCCG (sugars k3 d9 k3 e1, PS) | 83

same assay, conditions: ASO, MM.1R, 4 µM

Sequence | target mRNA inhibition
AGTCAATCACTGGAGA (sugars k3 d10 k3, PS) | 40% and 45%
GTGATAGCTGAGCTGA (sugars k3 d10 k3, PS) | 89% and 88%
GAGTGAGATGCGGAGG (sugars k3 d10 k3, PS) | 67%

same assay, conditions: ASO, SK-MEL-28, 4 µM

Sequence | target mRNA inhibition [%]
AGTCAATCACTGGAGA (sugars k3 d10 k3, PS) | 60
AGCCAGTGCCAGTTCC (sugars k3 d10 k3, PS) | 39
AGTCAAGCCCCAAGCC (sugars k3 d10 k3, PS) | 13
GTGTAAGGTCTGAGAG (sugars k3 d10 k3, PS) | 16
AAATACGACAACTTTC (sugars k3 d10 k3, PS) | 21
CAGGGAGCGGCCGTGG (sugars k3 d10 k3, PS) | 17
TTAGAAAGCCCTCACC (sugars k3 d10 k3, PS) | -16
ACACACATTTGAGAGC (sugars k3 d10 k3, PS) | 66
GACCTAACTAAATGTC (sugars k3 d10 k3, PS) | -18
